The target in one series is T1, NK1 receptor (Homo sapiens, UniProt P25103).
T1 construct: Measurement of NK1 Receptor Mediated Intracellular [Ca^2+]; Mobilization in U251 MG Cells Using FLIPR; endogenous in cells; host or cells: U251 MG cells
Briefly: NK1 receptor mediated intracellular [Ca2+] mobilization in U251 MG cells using FLIPR. The following applies: antagonist potency against Substance P (EC80), normalized to 100 nM Aprepitant, read-out: U251MG (FLIPR pIC50) (converted). Format: cell-based. Put shortly: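 Fluo-4-loaded U251 MG cells were preincubated with compound (0.5% DMSO final), with any agonist effect read for 5 min, then 10 min more at 37 °C before Substance P at EC80. Peak FLIPR fluorescence change was read, and IC50 came from a four-parameter fit as the midpoint between fitted top and bottom.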

Series [1] can be described thus: Hepatic intrinsic clearance following incubation in human liver microsomes. It counts as in vitro ADME. The following applies: NADPH regenerating system, 0-30 min, 37 °C. Put shortly:
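Compounds (from 50 µM working solution) are incubated with human liver microsomes diluted to 0.55 mg/mL in phosphate pH 7.4, with NADPH regeneration at 37 °C and sampling at 0–30 min. LC-MS/MS parent depletion gives kobs, scaled to mL/min/g liver. Eh uses 25.7 g liver/kg and 20.7 mL/min/kg blood flow.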
On the technique in general: Microsomes from liver hold many membrane-bound enzymes, among them those of drug oxidation.

The target in another series is T2, NK-1 receptor (Meriones unguiculatus, UniProt Q5DUB1).
T2 construct: animals (male Mongolian gerbils) were shaved on the rostral part of the back; from tissue; host or cells: living male Mongolian gerbils (skin, topical application; in vivo)
T2 sequence (Q5DUB1 whole entry): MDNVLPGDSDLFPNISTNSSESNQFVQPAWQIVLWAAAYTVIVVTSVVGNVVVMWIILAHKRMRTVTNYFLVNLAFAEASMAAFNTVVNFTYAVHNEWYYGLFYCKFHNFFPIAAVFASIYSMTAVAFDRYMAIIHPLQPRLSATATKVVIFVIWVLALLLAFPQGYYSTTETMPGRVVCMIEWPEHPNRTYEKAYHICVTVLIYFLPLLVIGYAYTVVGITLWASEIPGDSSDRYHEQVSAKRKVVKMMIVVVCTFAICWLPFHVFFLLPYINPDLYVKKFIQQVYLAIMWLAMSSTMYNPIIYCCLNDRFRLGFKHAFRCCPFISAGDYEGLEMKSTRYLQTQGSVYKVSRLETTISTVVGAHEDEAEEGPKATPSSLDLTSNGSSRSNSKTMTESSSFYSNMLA
Briefly: Gerbil scratching model (scratching induced by NK-1 agonist GR73632). It counts as in vivo, Mongolian gerbil. The following applies: topical application 1% w/v (20 μL) 20 min before i.d. GR73632 100 nmol/100 μL; male Mongolian gerbils. The protocol: The gerbil was selected for this study as this species shares higher homology to the human in terms of NK-1 receptor pharmacology compared to other laboratory rodents.
Each test compound was tested on 11 or 12 animals. On the day of the test, the gerbils (four animals simultaneously) were put into a Plexiglas cage (42×42×35 cm) composed of four cells (20.5×20.5×35 cm) for 10 minutes of habituation. After this period, the test compound (1% w/v in acetone and transcutol 9:1) was topically applied on the shaven area in a volume of 20 μL. Topical application was performed using a Hamilton syringe (25 μL) and a square stencil of impermeable paper (1.5×1.5 cm) to allow application over a defined skin area (2.25 cm2). […] I.d. injection was made with a Hamilton syringe (250 μL) connected to a 27 gauge needle. Immediately after injection, animals were placed back into the same cell of the Plexiglas cage they were previously habituated in and their behaviour was recorded on video remotely for 30 minutes. The experimenter remained out of the observation room in order to minimize disturbance to the animals. The video was subsequently analysed to assess scratching behaviour. Scratching of the injection site by the hind paws was counted while scratching of other sites such as ears and snout were disregarded. Scratching episodes were measured over 10-minutes time intervals, for a total of 30 minutes.
Results were expressed as mean value±SEM. Statistical analysis was performed by a one-way ANOVA followed by LSD post hoc test with the exception of time-course analysis for a repeated-measure ANOVA followed by LSD post hoc test was performed.

T1 sequence (P25103 whole entry): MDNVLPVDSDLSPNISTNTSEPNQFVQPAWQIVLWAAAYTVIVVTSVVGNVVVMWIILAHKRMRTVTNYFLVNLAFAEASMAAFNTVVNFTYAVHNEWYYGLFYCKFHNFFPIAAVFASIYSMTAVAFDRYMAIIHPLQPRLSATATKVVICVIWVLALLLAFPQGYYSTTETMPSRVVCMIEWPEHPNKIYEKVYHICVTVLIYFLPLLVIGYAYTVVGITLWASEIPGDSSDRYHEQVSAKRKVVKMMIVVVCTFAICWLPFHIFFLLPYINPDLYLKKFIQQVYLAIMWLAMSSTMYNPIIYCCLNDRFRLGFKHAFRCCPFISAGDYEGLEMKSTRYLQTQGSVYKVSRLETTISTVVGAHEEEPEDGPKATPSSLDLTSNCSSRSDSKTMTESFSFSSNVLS

As for `Cc1ccccc1C1C2CC(CCO)(CCO)C(=O)N2CCN1C(=O)N(C)[C@H](C)c1cc(C(F)(F)F)cc(C(F)(F)F)c1` (single isomer, unassigned) [Compound 54], the IC50 at NK1 receptor is 120 pM. The “Human in vitro Clint (mL/min/g liver)” value in series [1] was 9.5 mL/min/g liver. Further, on NK-1 receptor, the “attenuation of scratching induced in gerbils by the NK-1 selective agonist GR73632” value is given as “able to attenuate the scratching”.

For `Cc1ccccc1C1C2CC(CO)C(=O)N2CCN1C(=O)N(C)[C@H](C)c1cc(C(F)(F)F)cc(C(F)(F)F)c1` (single isomer, unassigned) [Compound 55], the IC50 on NK1 receptor is 151 pM. In addition, the “Human in vitro Clint (mL/min/g liver)” value in series [1] was determined as 2.4 mL/min/g liver. The “attenuation of scratching induced in gerbils by the NK-1 selective agonist GR73632” value on NK-1 receptor is “not able to attenuate the scratching”.

In the case of `Cc1ccccc1C1C2CC(CCO)(CCO)C(=O)N2CCN1C(=O)N(C)Cc1cc(C(F)(F)F)cc(C(F)(F)F)c1` (single isomer, unassigned) [Compound 44, N-{[3,5-bis(trifluoromethyl)phenyl]methyl}-7,7-bis(2-hydroxyethyl)-N-methyl-1-(2-methylphenyl)-6-oxo-octahydropyrrolo[1,2-a]piperazine-2-carboxamide], on NK1 receptor, the IC50 was 69.2 pM. Also, the “Human in vitro Clint (mL/min/g liver)” value in series [1] worked out at 2.6 mL/min/g liver. Moreover, the “attenuation of scratching induced in gerbils by the NK-1 selective agonist GR73632” value on NK-1 receptor is reported as “able to attenuate the scratching”.

These data come from patent US9181259B2 (LEO PHARMA A/S, priority 2012, dated 2015).
